Results from the supplement of paper PMC13380429.

Columns and labels:
Details in all cases: 72 h
[1] = test system: U2OS; test: cell viability relative to DMSO; higher = less toxic
[2] = test system: Calu-3; test: as above
[3] = test system: Vero E6; test: as above
[4] = test system: Caco-2; test: as above
[5] = test system: HepG2; test: as above
[6] = test system: U2OS; test: drug sensitivity score (DSS) for viability; higher = more toxic; extreme values may be limits of the assay
[7] = test system: Calu-3; test: as above
[8] = test system: Vero E6; test: as above
[9] = test system: Caco-2; test: as above
[10] = test system: HepG2; test: as above
[11] = test system: U2OS; test: relative viability EC50 (midpoint between 100% and the lowest measured viability); higher = less toxic
[12] = test system: Calu-3; test: as above
[13] = test system: Vero E6; test: as above
[14] = test system: Caco-2; test: as above
[15] = test system: HepG2; test: as above

| Compound | cell viability ([1]; 1 nM) | cell viability ([1]; 10 nM) | cell viability ([1]; 100 nM) | cell viability ([1]; 1000 nM) | cell viability ([1]; 10000 nM) | cell viability ([2]; 1 nM) | cell viability ([2]; 10 nM) | cell viability ([2]; 100 nM) | cell viability ([2]; 1000 nM) | cell viability ([2]; 10000 nM) | cell viability ([3]; 1 nM) | cell viability ([3]; 10 nM) | cell viability ([3]; 100 nM) | cell viability ([3]; 1000 nM) | cell viability ([3]; 10000 nM) | cell viability ([4]; 1 nM) | cell viability ([4]; 10 nM) | cell viability ([4]; 100 nM) | cell viability ([4]; 1000 nM) | cell viability ([4]; 10000 nM) | cell viability ([5]; 1 nM) | cell viability ([5]; 10 nM) | cell viability ([5]; 100 nM) | cell viability ([5]; 1000 nM) | cell viability ([5]; 10000 nM) | drug sensitivity score [6] | drug sensitivity score [7] | drug sensitivity score [8] | drug sensitivity score [9] | drug sensitivity score [10] | relative viability EC50 [11] | relative viability EC50 [12] | relative viability EC50 [13] | relative viability EC50 [14] | relative viability EC50 [15] |
| --- | --- | --- | --- | --- | --- | --- | --- | --- | --- | --- | --- | --- | --- | --- | --- | --- | --- | --- | --- | --- | --- | --- | --- | --- | --- | --- | --- | --- | --- | --- | --- | --- | --- | --- | --- |
| CCCC(=O)O[C@]1(C(=O)CO)CC[C@H]2[C@@H]3CCC4=CC(=O)CC[C@]4(C)[C@H]3[C@@H](O)C[C@@]21C [hydrocortisone-butyrate] | 97% | 95.8% | 97.1% | 95.3% | 95.6% | 109% | 101% | 102% | 95.8% | 89.1% | 95.5% | 99% | 91.5% | 102% | 105% | 103% | 95.2% | 98.4% | 104% | 102% | 95.1% | 102% | 93.8% | 102% | 101% | 0 | 0.1 | 0 | 0 | 0 | > 10 µM | > 10 µM | > 10 µM | > 10 µM | > 10 µM |
| CC(N)Cc1ccc(O)cc1 (stereo not given) [hydroxyamphetamine] | 98.6% | 101% | 96.2% | 102% | 94.5% | 92.5% | 94.4% | 98.7% | 100% | 107% | 99.9% | 102% | 99.4% | 95.1% | 104% | 107% | 92.8% | 94.2% | 98.7% | 99.5% | 102% | 103% | 93.4% | 93.7% | 96% | 0 | 0 | 0 | 0 | 0 | > 10 µM | > 10 µM | > 10 µM | > 10 µM | > 10 µM |
| O=c1c(O[C@@H]2O[C@H](CO)[C@H](O)[C@H](O)[C@H]2O)c(-c2ccc(O)c(O)c2)oc2cc(O)cc(O)c12 [hyperin] | 99.5% | 97.3% | 101% | 98.4% | 100% | 96.9% | 86.3% | 102% | 104% | 98.9% | 98% | 97.2% | 94% | 97.7% | 108% | 104% | 93.3% | 99% | 107% | 105% | 84.8% | 95.7% | 87.3% | 103% | 97.9% | 0 | 0 | 0 | 0 | 0 | > 10 µM | > 10 µM | > 10 µM | > 10 µM | > 10 µM |
| CNC(=O)[C@H](Cc1c[nH]c2ccccc12)NC(=O)[C@@H](CC(=O)NO)CC(C)C [ilomastat] | 97.6% | 98.2% | 85.8% | 102% | 84.7% | 102% | 98.6% | 107% | 97.3% | 90.4% | 97.4% | 97% | 95% | 93.2% | 88.7% | 94.1% | 104% | 102% | 96.6% | 102% | 107% | 90.5% | 104% | 90.5% | 103% | 0 | 0 | 0 | 0 | 0 | > 10 µM | > 10 µM | > 10 µM | > 10 µM | > 10 µM |
| CS(=O)(=O)Oc1ccc2c(NC(N)=O)c(C(=O)c3ccc(Cl)cc3Cl)oc2c1 [lirimilast] | 95.5% | 99% | 97.9% | 107% | 102% | 98.8% | 106% | 91.4% | 101% | 104% | 98.6% | 94.7% | 97% | 84.4% | 99.6% | 98.5% | 96.3% | 102% | 108% | 110% | 94.3% | 89.7% | 106% | 94.7% | 95.9% | 0 | 0 | 0 | 0 | 0 | > 10 µM | > 10 µM | > 10 µM | > 10 µM | > 10 µM |
| O=C(O)c1ccccc1Nc1cc(Cl)ccc1C(=O)O [lobenzarit] | 91.3% | 96% | 101% | 96.9% | 104% | 111% | 88.1% | 108% | 95.2% | 90.3% | 97.7% | 97.3% | 86% | 87.4% | 114% | 95.9% | 101% | 99.1% | 93.1% | 98.2% | 106% | 109% | 95.6% | 103% | 105% | 0 | 0.2 | 0 | 0 | 0 | > 10 µM | > 10 µM | > 10 µM | > 10 µM | > 10 µM |
| NCCCC[C@H](NC(=O)[C@@H]1CCCN1C(=O)[C@@H]1CSSC[C@H](N)C(=O)N[C@@H](Cc2ccc(O)cc2)C(=O)N[C@@H](Cc2ccccc2)C(=O)N[C@@H](CCC(N)=O)C(=O)N[C@@H](CC(N)=O)C(=O)N1)C(=O)NCC(N)=O [lypressin] | 99.7% | 105% | 97.5% | 98.8% | 101% | 95.6% | 98.1% | 103% | 93.4% | 92.2% | 97.4% | 101% | 95.4% | 99.1% | 100% | 98.6% | 99.6% | 97.8% | 102% | 101% | 105% | 97.9% | 97.8% | 100% | 100% | 0 | 0 | 0 | 0 | 0 | > 10 µM | > 10 µM | > 10 µM | > 10 µM | > 10 µM |
| C[N+]1(C)CCCC(OC(=O)C(O)(c2ccccc2)c2ccccc2)C1 (stereo not given) [mepenzolate] | 99.7% | 101% | 96.6% | 101% | 96.9% | 105% | 103% | 96.1% | 110% | 94.5% | 94.9% | 105% | 97.5% | 99.6% | 99.8% | 91.3% | 87.1% | 96.6% | 101% | 101% | 107% | 98.1% | 104% | 91.9% | 94.3% | 0 | 0 | 0 | 0 | 0 | > 10 µM | > 10 µM | > 10 µM | > 10 µM | > 10 µM |
| CN(C)C(=O)Oc1ccc[n+](C)c1 [mestinon] | 104% | 102% | 106% | 98.6% | 104% | 96.5% | 95.1% | 102% | 93.7% | 94.5% | 99.8% | 108% | 102% | 104% | 93.5% | 91.5% | 95.9% | 107% | 99.8% | 99.1% | 95.1% | 93% | 101% | 91.2% | 96.3% | 0 | 0 | 0 | 0 | 0 | > 10 µM | > 10 µM | > 10 µM | > 10 µM | > 10 µM |
| C[N+]1(C)[C@@H]2CC[C@H]1C[C@@H](OC(=O)C(CO)c1ccccc1)C2 (stereo not given in full) [methylatropine-nitrate] | 95.4% | 95.4% | 100% | 100% | 101% | 93% | 100% | 108% | 97.2% | 106% | 95.6% | 98.8% | 95.3% | 99.1% | 104% | 96.9% | 93.4% | 108% | 104% | 99.6% | 96.7% | 105% | 102% | 98.7% | 99.8% | 0 | 0 | 0 | 0 | 0 | > 10 µM | > 10 µM | > 10 µM | > 10 µM | > 10 µM |
| Cc1c(NC(=O)c2cccnc2)c(=O)n(-c2ccccc2)n1C [nifenazone] | 98.3% | 104% | 102% | 105% | 101% | 106% | 106% | 92.3% | 100% | 106% | 105% | 101% | 99.3% | 101% | 97.2% | 110% | 98.7% | 93.2% | 97.1% | 89.4% | 105% | 91.9% | 109% | 94.4% | 90.6% | 0 | 0 | 0 | 0 | 0 | > 10 µM | > 10 µM | > 10 µM | > 10 µM | > 10 µM |
| O=C(O)c1cccnc1Nc1cccc(C(F)(F)F)c1 [niflumic-acid] | 99.7% | 98% | 104% | 106% | 102% | 100% | 90.9% | 98.7% | 99.7% | 95.2% | 100% | 96% | 97.4% | 97.3% | 101% | 108% | 98.5% | 98.4% | 96.2% | 100% | 103% | 101% | 99.6% | 97.2% | 104% | 0 | 0 | 0 | 0 | 0 | > 10 µM | > 10 µM | > 10 µM | > 10 µM | > 10 µM |
| COC(=O)C1=C(C#N)NC(C)=C(C(=O)OC(C)C)C1c1cccc([N+](=O)[O-])c1 (stereo not given) [nilvadipine] | 96.6% | 98.4% | 97% | 96.7% | 104% | 90.9% | 101% | 90.8% | 97.5% | 120% | 95.9% | 93.6% | 100% | 97.9% | 109% | 96.1% | 84.7% | 92.7% | 94.1% | 96% | 108% | 98.6% | 109% | 96.1% | 95% | 0 | 0 | 0 | 0 | 0 | > 10 µM | > 10 µM | > 10 µM | > 10 µM | > 10 µM |
